# Experimental data reported in ChEMBL document CHEMBL1142347, “Synthesis and antibiotic activity of a small molecules library of 1,2,3-triazole derivatives” (2008).
# The source made the active and inactive calls. The rule behind the calls is not given here.
# Columns and labels:
# Format in all cases: functional
# Staphylococcus aureus [1] = assay: Growth inhibition of Staphylococcus aureus 1199B expressing NorA at 0.1 mg/ml after 24 hrs
# Staphylococcus aureus [2] = assay: Growth inhibition of Staphylococcus aureus RN4220 expressing MsrA at 0.1 mg/ml after 24 hrs; details: for inhibition at 100 µg/mL: RN4220, 24 h
# Staphylococcus aureus [3] = assay: Growth inhibition of Staphylococcus aureus 1199B expressing NorA at 0.1 mg/ml after 24 hrs in presence of 4 mg/L ciprofloxacin
# Staphylococcus aureus [4] = assay: Growth inhibition of Staphylococcus aureus RN4220 expressing MsrA at 0.1 mg/ml after 24 hrs in presence of 16 mg/L erythromycin
# Staphylococcus aureus [5] = assay: Growth inhibition of Staphylococcus aureus ATCC 25923 at 0.1 mg/ml after 24 hrs; details: for inhibition at 100 µg/mL: ATCC 25923, 24 h
SMILES,inhibition at 100 µg/mL (Staphylococcus aureus [1]),inhibition at 100 µg/mL (Staphylococcus aureus [2]),Inhibition (Staphylococcus aureus [3]),Inhibition (Staphylococcus aureus [4]),Activity (Staphylococcus aureus [5]),inhibition at 100 µg/mL (Staphylococcus aureus [5]),Activity (Staphylococcus aureus [1]),Activity (Staphylococcus aureus [3]),Activity (Staphylococcus aureus [2]),Activity (Staphylococcus aureus [4])
O=C1c2ccccc2C(=O)N1Cc1cn(-c2ccccc2)nn1,17%,24%,17%,41%,inactive,–,–,–,–,–
O=C(O)c1cn(-c2ccccc2)nn1,18%,54%,15%,74.9%,inactive,–,–,–,–,–
CCCCCCCCCCCCn1cc(CN2C(=O)c3ccccc3C2=O)nn1,40%,43%,45%,65%,–,20%,–,–,–,–
COc1ccc(-n2cc(C(=O)O)nn2)cc1,21%,38%,24%,45.8%,inactive,–,–,–,–,–
O=C1c2ccccc2C(=O)N1Cc1cn(-c2cccnc2)nn1,22%,46%,26.6%,71%,–,24%,–,–,–,–
O=C(O)c1cn(-c2cccnc2)nn1,23%,52.6%,24%,78%,–,14%,–,–,–,–
c1ccc(Cn2cc(COc3ccccc3)nn2)cc1,21%,32.7%,20%,43%,–,12%,–,–,–,–
O=C1c2ccccc2C(=O)N1Cc1cn(-c2ccc([N+](=O)[O-])cc2)nn1,35%,48.1%,38%,72%,–,22%,–,–,–,–
CCOC(OCC)c1cn(-c2ccc(OC)cc2)nn1,11%,9%,71%,25%,inactive,–,–,–,–,–
C=CCn1cc(C(OCC)OCC)nn1,–,6%,–,40%,–,17%,inactive,inactive,–,–
C=CCn1cc(C(=O)OC)nn1,16%,44%,16%,71%,–,21%,–,–,–,–
c1ccc(OCc2cn(-c3ccccc3)nn2)cc1,11%,11%,26%,41%,–,31%,–,–,–,–
CCCCCCCCn1cc(CN2C(=O)c3ccccc3C2=O)nn1,27.4%,40%,25%,24%,inactive,–,–,–,–,–
COC(=O)c1cn(Cc2ccccc2)nn1,15%,15%,18%,33%,–,25%,–,–,–,–
CCOC(OCC)c1cn(-c2ccccc2)nn1,–,–,–,–,inactive,–,inactive,inactive,inactive,inactive
OCc1cn(Cc2ccccc2)nn1,6%,–,–,–,–,6.1%,–,inactive,inactive,inactive
CCOC(OCC)c1cn(-c2cccnc2)nn1,6.3%,–,–,–,inactive,–,–,inactive,inactive,inactive
c1ccc(OCc2cn(-c3cccnc3)nn2)cc1,22%,30%,56%,58%,–,22%,–,–,–,–
C=CCn1cc(COc2ccccc2)nn1,15%,32%,20%,38%,–,16%,–,–,–,–
COc1ccc(-n2cc(CN3C(=O)c4ccccc4C3=O)nn2)cc1,15%,24.1%,18%,48%,–,24%,–,–,–,–
O=[N+]([O-])c1ccc(-n2cc(COc3ccccc3)nn2)cc1,18%,34%,24%,56%,–,27%,–,–,–,–
C=CCn1cc(C(=O)O)nn1,–,–,6%,–,inactive,–,inactive,–,inactive,inactive
O=C1c2ccccc2C(=O)N1Cc1cn(Cc2ccccc2)nn1,57%,30%,36%,44%,inactive,–,–,–,–,–
C=CCn1cc(CN2C(=O)c3ccccc3C2=O)nn1,18%,33%,23%,36%,inactive,–,–,–,–,–
COC(=O)c1cn(-c2cccnc2)nn1,–,11%,–,78.3%,–,16%,inactive,inactive,–,–
O=C(O)c1cn(Cc2ccccc2)nn1,8%,31%,9%,22%,inactive,–,–,–,–,–
COc1ccc(-n2cc(COc3ccccc3)nn2)cc1,11%,21%,16%,39%,–,10%,–,–,–,–
CCOC(OCC)c1cn(Cc2ccccc2)nn1,6%,19%,8%,28%,–,32%,–,–,–,–
